Measurements taken from patent US8278469B2, “17-hydroxy-17-pentafluoroethyl-estra-4,9(10)-dien-11-aryl derivatives, method of production thereof and use thereof for the treatment of diseases” (Bayer Pharma Aktiengesellschaft, priority 2009, dated 2012).
Like-named read-outs stand apart in the source and are kept apart here.

How the values were obtained:
[1] = Metabolic stability in human liver microsomes (HLM); type: in vitro ADME; conditions: HLM 0.5 mg/ml protein, 1 μM, 37° C., pH 7.4; well-stirred model, phase I reactions
Experimental: Metabolic Stability of (11β,17β)-17-hydroxy-11-[4-(methylsulphonyl)phenyl]-17-(pentafluoroethyl)estra-4,9-dien-3-one and (11β,17β)-17-hydroxy-11-[4′-(methylsulphonyl)-biphenyl-4-4-yl]-17-(pentafluoroethyl)estra-4,9-dien-3-one in Human Liver Microsomes (HLM)
Isolated human liver microsomes (HLM) were used for assessing the metabolic stability of compounds of general formula I.
Incubations were carried out with 2.4 ml of HLM solution (0.5 mg/ml protein content), 30 μl of the test compound (final concentration 1 μM) and 0.6 ml of the cofactor mixture (=NADPH-generating system of 3 IU glucose-6-phosphate dehydrogenase, 14.6 mg glucose-6-phosphate, 1.2 mg NADP) at 37° C. in 100 mM phosphate buffer at pH 7.4. Samples are taken at 6 time points (2-60 min), precipitated with an equal volume of methanol and the recovery of the test substances used in the supernatant is determined by LC-MS/MS analysis. The intrinsic clearance of the substance in the liver microsome preparation can be calculated from the half-life found for the breakdown of the substance. Based on this, together with various physiological characteristics according to the well-stirred model, it is then possible to predict a (metabolic) in vivo clearance with respect to phase I reactions. […]

[2] = target: T1, human progesterone receptor A (PR-A) (Homo sapiens, UniProt P06401); assay: Progesterone receptor-antagonistic action in stable transfectants of SK-N-MC cells with human PR-A and MTV-LUC reporter; type: cell-based; conditions: for Emax: read-out: Progesterone receptor A (PR-A) Efficacy; for IC50: antagonistic activity against 0.1 nmol/l promegestone, LUC reporter, read-out: Progesterone receptor A (PR-A) Potency IC50
T1 construct: expressed in transfected cells; host or cells: SK-N-MC human neuroblastoma cells, stably transfected with pRChPR-A-neo and pMMTV-LUC
T1 sequence (P06401 1-769 isoform P06401-2): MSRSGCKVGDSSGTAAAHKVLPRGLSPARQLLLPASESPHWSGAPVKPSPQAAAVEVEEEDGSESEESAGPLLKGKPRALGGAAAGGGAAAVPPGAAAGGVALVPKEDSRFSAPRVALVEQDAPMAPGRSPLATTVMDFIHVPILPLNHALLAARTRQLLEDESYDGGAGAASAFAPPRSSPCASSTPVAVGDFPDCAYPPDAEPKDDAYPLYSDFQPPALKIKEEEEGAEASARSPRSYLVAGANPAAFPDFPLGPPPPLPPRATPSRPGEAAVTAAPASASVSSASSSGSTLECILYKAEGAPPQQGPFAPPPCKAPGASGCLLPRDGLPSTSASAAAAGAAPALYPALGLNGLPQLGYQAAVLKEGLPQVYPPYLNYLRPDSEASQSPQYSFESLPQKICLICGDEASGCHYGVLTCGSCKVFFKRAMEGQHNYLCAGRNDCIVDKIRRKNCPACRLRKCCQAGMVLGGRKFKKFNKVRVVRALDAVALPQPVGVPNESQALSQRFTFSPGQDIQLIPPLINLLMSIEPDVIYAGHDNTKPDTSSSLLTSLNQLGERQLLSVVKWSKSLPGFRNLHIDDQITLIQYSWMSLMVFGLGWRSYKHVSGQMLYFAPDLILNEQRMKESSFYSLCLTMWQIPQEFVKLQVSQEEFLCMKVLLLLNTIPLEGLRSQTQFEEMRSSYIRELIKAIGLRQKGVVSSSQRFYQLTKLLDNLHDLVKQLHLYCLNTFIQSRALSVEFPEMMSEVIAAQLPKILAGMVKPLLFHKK
Experimental: (§1) Progesterone Receptor-Antagonistic Action in Stable Transfectants of Human Neuroblastoma Cells (SK-N-MC Cells) with the Human Progesterone A or Progesterone B Receptor and an MTV-LUC Reporter Construct
(§2) SK-N-MC cells (human neuroblastoma cells), which have been stably transfected with plasmids, which express the human progesterone receptor B (pRChPR-B-neo) or the human progesterone receptor A (pRChPR-A-neo) and a reporter construct (pMMTV-LUC), were incubated for 24 hours either in the absence (negative control) or in the presence of increasing amounts of the respective test compound (0.01 nmol/l, 0.1 nmol/l, 1 nmol/l, 10 nmol/l, 100 nmol/l and 1 μmol/l), in order to determine the agonistic efficacy. As positive control of reporter gene induction, the cells were treated with the synthetic gestagen promegestone (0.01 nmol/l, 0.1 nmol/l, 1 nmol/l, 10 nmol/l, 100 nmol/l and 1 μmol/l). For determination of the antagonistic activity, the cells were treated with 0.1 nmol/l promegestone and additionally with increasing amounts of the respective test compound (0.01 nmol/l, 0.1 nmol/l, 1 nmol/l, 10 nmol/l, 100 nmol/l and 1 μmol/l). The activity of the LUC reporter gene (LUC=luciferase) was determined in the cell lysates and was measured as RLU (relative light units). All measured values are given as percentage efficacy and as EC50 or IC50 concentrations.
(§3) 11β-(4-Acetylphenyl)-20,20,21,21,21-pentafluoro-17-hydroxy-19-nor-17α-pregna-4,9-dien-3-one and 20,20,21,21,21-pentafluoro-17-hydroxy-11β-[4-(hydroxyacetyl)phenyl]-19-nor-17α-pregna-4,9-dien-3-one, very potent and therefore preferred examples from WO98/34947 and WO2008/058767, were tested as comparative compounds along with the test compound.

[3] = target: T2, human progesterone receptor B (PR-B) (Homo sapiens, UniProt P06401); assay: Progesterone receptor-antagonistic action in stable transfectants of SK-N-MC cells with human PR-B and MTV-LUC reporter; type: cell-based; conditions: for Emax: read-out: Progesterone receptor B (PR-B) Efficacy; for IC50: antagonistic activity against 0.1 nmol/l promegestone, LUC reporter, read-out: Progesterone receptor B (PR-B) Potency IC50
T2 construct: expressed in transfected cells; host or cells: SK-N-MC human neuroblastoma cells, stably transfected with pRChPR-B-neo and pMMTV-LUC
T2 sequence (P06401 1-933): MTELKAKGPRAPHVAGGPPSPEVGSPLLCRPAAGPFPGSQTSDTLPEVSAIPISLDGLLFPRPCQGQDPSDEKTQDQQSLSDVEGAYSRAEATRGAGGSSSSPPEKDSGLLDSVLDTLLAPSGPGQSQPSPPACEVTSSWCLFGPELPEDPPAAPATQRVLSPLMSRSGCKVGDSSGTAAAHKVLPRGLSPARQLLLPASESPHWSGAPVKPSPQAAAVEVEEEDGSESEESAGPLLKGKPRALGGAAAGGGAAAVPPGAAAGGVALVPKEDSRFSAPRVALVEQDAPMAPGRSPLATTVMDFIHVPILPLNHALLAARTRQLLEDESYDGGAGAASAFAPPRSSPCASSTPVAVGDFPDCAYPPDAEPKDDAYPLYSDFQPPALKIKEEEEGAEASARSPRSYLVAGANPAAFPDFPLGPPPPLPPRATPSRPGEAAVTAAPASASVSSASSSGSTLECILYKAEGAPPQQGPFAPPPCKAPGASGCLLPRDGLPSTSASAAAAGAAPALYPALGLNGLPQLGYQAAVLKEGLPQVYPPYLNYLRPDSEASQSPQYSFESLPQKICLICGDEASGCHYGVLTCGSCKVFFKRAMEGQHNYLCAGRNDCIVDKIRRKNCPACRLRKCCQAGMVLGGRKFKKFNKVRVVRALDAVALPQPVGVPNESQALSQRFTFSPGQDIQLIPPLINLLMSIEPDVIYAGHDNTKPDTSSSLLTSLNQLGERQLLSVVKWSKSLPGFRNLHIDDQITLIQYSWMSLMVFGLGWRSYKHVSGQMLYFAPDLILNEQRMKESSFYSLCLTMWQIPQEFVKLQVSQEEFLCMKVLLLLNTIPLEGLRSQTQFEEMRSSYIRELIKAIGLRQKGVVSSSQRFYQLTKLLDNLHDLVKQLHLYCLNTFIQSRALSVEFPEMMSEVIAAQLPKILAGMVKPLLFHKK
Experimental: as §1, §2, §3

[4] = antagonistic efficacy against 0.1 nmol/l promegestone, SK-N-MC cells, 24 hours

SMILES	(metabolic) in vivo clearance in humans predicted [1]	Emax [2, 4]	Emax [3, 4]	IC50 ([2]; SK-N-MC cells, 24 hours)	IC50 ([3]; SK-N-MC cells, 24 hours)	Emax ([2]; SK-N-MC, 24 h)	Emax ([3]; SK-N-MC, 24 h)
CSc1ccc([C@H]2C[C@@]3(C)[C@@H](CC[C@@]3(O)C(F)(F)C(F)(F)F)[C@@H]3CCC4=CC(=O)CCC4=C32)cc1 [Example 1, (11β,17β)-17-hydroxy-11-[4-(methylsulphanyl)phenyl]-17-(pentafluoroethyl)estra-4,9-dien-3-one]	–	–	–	–	0.012 nM	100%	100%
CCS(=O)(=O)c1ccc([C@H]2C[C@@]3(C)C(CC[C@@]3(O)C(F)(F)C(F)(F)F)C3CCC4=CC(=O)CCC4=C32)cc1 (stereo partly drawn) [Example 5, (11β,17β)-11-[4-(ethylsulphonyl)phenyl]-17-hydroxy-17-(pentafluoroethyl)estra-4,9-dien-3-one]	–	100%	100%	0.1 nM	0.09 nM	–	–

More lines, main results first:

(metabolic) in vivo clearance in humans predicted [1]	Emax [2, 4]	Emax [3, 4]	IC50 ([2]; SK-N-MC cells, 24 hours)	IC50 ([3]; SK-N-MC cells, 24 hours)	SMILES	Emax ([2]; SK-N-MC, 24 h)	Emax ([3]; SK-N-MC, 24 h)
< 0.17 mL/min/kg	100%	100%	–	–	C[C@]12C[C@H](c3ccc(-c4ccc(S(C)(=O)=O)cc4)cc3)C3=C4CCC(=O)C=C4CC[C@H]3[C@@H]1CC[C@@]2(O)C(F)(F)C(F)(F)F [Example 10, (11β,17β)-17-hydroxy-11-[4′-(methylsulphonyl)biphenyl-4-yl]-17-(pentafluoroethyl)estra-4,9-dien-3-one]	–	–
–	100%	100%	0.01 nM	0.01 nM	Cc1ccc(S(=O)(=O)N=S(C)(=O)c2ccc(-c3ccc([C@H]4C[C@@]5(C)C(CC[C@@]5(O)C(F)(F)C(F)(F)F)C5CCC6=CC(=O)CCC6=C54)cc3)cc2)cc1 (mixture of isomers) [Example 11, N-[{4′-[(11β,17β)-17-hydroxy-3-oxo-17-(pentafluoroethyl)estra-4,9-dien-11-yl]biphenyl-4-yl}(RS)(methyl)oxido-λ^6-sulphanylidene]-4-methylbenzene sulphonamide]	–	–
–	100%	100%	–	–	CSc1ccc(-c2ccc([C@H]3C[C@@]4(C)[C@@H](CC[C@@]4(O)C(F)(F)C(F)(F)F)[C@@H]4CCC5=CC(=O)CCC5=C43)cc2)cc1 [Example 9, (11β,17β)-17-Hydroxy-11-[4′-(methylsulphanyl)biphenyl-4-yl]-17-(pentafluoroethyl)estra-4,9-dien-3-one]	–	–
–	100%	100%	0.08 nM	0.08 nM	C[C@]12C[C@H](c3ccc(-c4ccc(S(C)(=N)=O)cc4)cc3)C3=C4CCC(=O)C=C4CCC3C1CC[C@@]2(O)C(F)(F)C(F)(F)F (stereo partly drawn) [Example 12, (11β,17β)-17-hydroxy-11-[4′-(RS-methylsulphonimidoyl)biphenyl-4-yl]-17-(pentafluoroethyl)estra-4,9-dien-3-one]	–	–
